Reference: US11266655B2, “Methods and compositions for treating urea cycle disorders” (Camp4 Therapeutics Corporation, priority 2019, dated 2022)
“And” between values parts separate entries of the source, which are not always exact repeats. Equal entries are not always repeated. Where two headings read alike, the source gives them in different places.

B1: GDF2 (BMP9): member of BMP family and the TGF-B superfamily (protein, UniProt Q9UK05 320-429, looked up)
Growth/differentiation factor …: SAGAGSHCQKTSLRVNFEDIGWDSWIIAPKEYEAYECKGGCFFPLADDVTPTKHAIVQTLVHLKFPTKVGKACCVPTKLSPISVLYKDDMGVPTLKYHYEGMSVAECGCR

Key:
OTC = assay: JAK inhibitors at 0.3 and 3 μM in primary human hepatocytes, OTC mRNA fold change; assay type: cell-based; conditions: fold change vs DMSO
Protocol: (§1) Additional small molecules that inhibit JAK1, JAK2, JAK3, or a combination of the JAK proteins were tested in primary human hepatocytes as described in Example 2. JAK inhibitors were tested in triplicate at 0.3 μM and 3 μM. The results are shown as the fold change (mRNA FC) in the mRNA levels of OTC and CPS1 genes after treatment compared to an untreated control (DMSO) and the standard deviation (SD).

CPS1 [1] = assay: JAK inhibitors at 0.3 and 3 μM in primary human hepatocytes, CPS1 mRNA fold change; assay type: cell-based; conditions: fold change vs DMSO
Protocol: as §1

SLC25A15 = assay: RNA-seq of compound-treated primary human hepatocytes, SLC25A15 expression; assay type: cell-based; conditions: for Relative SLC25A15 level vs Untreated (±Standard Deviation): triplicate (Table 24, FIG. 16A-B)
ASS1 = assay: RNA-seq of compound-treated primary human hepatocytes, ASS1 expression; assay type: cell-based; conditions: primary human hepatocytes; for Relative ASS1 level vs Untreated (±Standard Deviation): triplicate (Table 15, FIG. 7); for Fold change (Log 2) vs untreated, ASS1 expression: RNA-seq (Table 4)
ARG1 = assay: RNA-seq of compound-treated primary human hepatocytes, ARG1 expression; assay type: cell-based; conditions: for Relative ARGI level vs Untreated (±Standard Deviation) / Fold change (Log 2) vs untreated, ARG1 expression: primary human hepatocytes; for Relative ARGI level vs Untreated (±Standard Deviation): triplicate (Table 17, FIG. 9); for Fold change (Log 2) vs untreated, ARG1 expression: RNA-seq (Table 7)
CPS1 [2] = assay: RNA-seq of compound-treated primary human hepatocytes, CPS1 expression; assay type: cell-based; conditions: primary human hepatocytes; for Relative CPS1 level vs Untreated (±Standard Deviation): triplicate (Table 19, FIG. 11); for CPS1 expression, Fold change (Log 2) vs untreated: RNA-seq
NAGS = assay type: cell-based, human; conditions: for Relative NAGS level vs Untreated (±Standard Deviation): primary human hepatocytes, triplicate (Table 21, FIG. 13)
urea cycle genes = assay: RNA-seq of primary human hepatocytes, compounds that modulate multiple urea cycle-related genes; assay type: cell-based; conditions: primary human hepatocytes, RNA-seq; for Up-regulated Genes: urea cycle-related genes significantly increased (Table 10)
[3] = 3 μM, primary human hepatocytes
[4] = 10 μM, primary human hepatocytes
[5] = Example 11, relative mRNA vs DMSO
[6] = 1 μM, primary human hepatocytes

| Molecule | OTC mRNA FC (OTC; 0.3 uM) | OTC mRNA FC (OTC; 3 uM) | CPS1 mRNA FC (CPS1 [1]; 0.3 uM) | CPS1 mRNA FC (CPS1 [1]; 3 uM) | further results |
| --- | --- | --- | --- | --- | --- |
| O=C(Nc1ccc(-c2ccnc(Nc3ccc(N4CCOCC4)cc3)n2)cc1)C1CCCN1 (stereo not shown) [XL019] | 1.09 | 1.02 | 0.91 | 0.81 |  |
| N#CC[C@H](C1CCCC1)n1cc(-c2ncnc3[nH]ccc23)cn1 [ruxolitinib] | 2.65 | 4.17 | 1.66 | 1.79 |  |
| Cc1cnc(Nc2ccc(OCCN3CCCC3)cc2)nc1Nc1cccc(S(=O)(=O)NC(C)(C)C)c1 [Fedratinib] | 1.09 | 1.49 | 0.93 | 0.95 |  |
| NC(=O)c1cnc2[nH]ccc2c1N[C@@H]1[C@@H]2CC3C[C@H]1C[C@@](O)(C3)C2 [Peficitinib] | 2.38 | 3.49 | 1.31 | 2.28 |  |
| CN1C/C=C/CCOc2cccc(c2)-c2ccnc(n2)Nc2cccc(c2)C1 [SB1317/TG02] | 1.05 | 0.64 | 1.05 | 1.03 | Relative SLC25A15 level vs Untreated (±Standard Deviation) (SLC25A15; 0.3 μM, primary human hepatocytes): 1.36 ± 0.24; Relative SLC25A15 level vs Untreated (±Standard Deviation) (SLC25A15; [3]): 2.70 ± 0.34; Relative SLC25A15 level vs Untreated (±Standard Deviation) (SLC25A15; [4]): 2.71 ± 0.09; Relative ASS1 level vs Untreated (±Standard Deviation) (ASS1; 1 μM): 1.34 ± 0.12; Relative ASS1 level vs Untreated (±Standard Deviation) (ASS1; 3 μM): 1.90 ± 0.19; Relative ASS1 level vs Untreated (±Standard Deviation) (ASS1; 10 μM): 1.92 ± 0.18 |
| O=C(Nc1nc2cccc(-c3ccc(CN4CCS(=O)(=O)CC4)cc3)n2n1)C1CC1 [GLPG0634/Filgotinib] | 1.12 | 2.11 | 1.08 | 1.56 |  |
| CCS(=O)(=O)N1CCN(c2ccc(Nc3ncc(C(N)=O)c(NC4CC4)n3)cc2)CC1 [cerdulatinib] | 2.56 | 1.89 | 1.58 | 2.39 |  |
| CC(=O)NCC(=O)N1[C@@H]2CC[C@H]1c1ccc(Nc3ncc(C(F)(F)F)c(NC4CCC4)n3)cc12 [PF-3814735] |  |  |  |  | Relative ARGI level vs Untreated (±Standard Deviation) (ARG1; 1 μM): 1.44 ± 0.02; Relative ARGI level vs Untreated (±Standard Deviation) (ARG1; 3 μM): 2.45 ± 0.43; increase in ARG1 gene expression (Tables 17, 18, FIG. 9, 10) (ARG1; [5]): greatest increase; Relative CPS1 level vs Untreated (±Standard Deviation) (CPS1 [2]; 3 μM): 2.25 ± 0.74; Relative SLC25A15 level vs Untreated (±Standard Deviation) (SLC25A15; [6]): 1.35 ± 0.11; Relative SLC25A15 level vs Untreated (±Standard Deviation) (SLC25A15; [3]): 3.06 ± 0.51; Relative SLC25A15 level vs Untreated (±Standard Deviation) (SLC25A15; [4]): 2.41 ± 0.14; Increase in SLC25A15 gene expression (qualitative) (SLC25A15; [5]): greatest increase; Relative ASS1 level vs Untreated (±Standard Deviation) (ASS1; 10 μM): 1.56 ± 0.17 |
| N#CCC1(n2cc(-c3ncnc4[nH]ccc34)cn2)CN(C2CCN(C(=O)c3ccnc(C(F)(F)F)c3F)CC2)C1 [itacitinib] | 3.56 | 3.41 | 1.84 | 2.17 |  |
| COc1cc2c(Oc3ccc(NC(=O)C4(C(=O)Nc5ccc(F)cc5)CC4)cc3F)ccnc2cc1OCCCN1CCOCC1 [Foretinib] |  |  |  |  | Relative ARGI level vs Untreated (±Standard Deviation) (ARG1; 3 μM): 1.40 ± 0.00; Relative ARGI level vs Untreated (±Standard Deviation) (ARG1; 10 μM): 1.61 ± 0.12; Relative CPS1 level vs Untreated (±Standard Deviation) (CPS1 [2]; 3 μM): 1.37 ± 0.30; Relative CPS1 level vs Untreated (±Standard Deviation) (CPS1 [2]; 10 μM): 1.75 ± 0.30; Relative SLC25A15 level vs Untreated (±Standard Deviation) (SLC25A15; [4]): 1.97 ± 0.15; Relative NAGS level vs Untreated (±Standard Deviation) (NAGS; 10 μM): 1.45 ± 0.38; Relative ASS1 level vs Untreated (±Standard Deviation) (ASS1; 10 μM): 1.82 ± 0.11 |
| Cc1cc(Nc2cc(CN3CCOCC3)c3nc(C)c(Cc4ccc(Cl)cc4F)n3n2)n[nH]1 [LY2784544/gandotinib] | 1.19 | 1.63 | 1.11 | 1.39 |  |
| C[C@]12CC[C@H]3[C@@H](CCC4=CC(=O)CC[C@@]43C)[C@@H]1CC[C@@H]2C(=O)CO [Deoxycorticosterone] |  |  |  |  | Fold change (Log 2) vs untreated, ARG1 expression (ARG1): 1.37 Log 2; CPS1 expression, Fold change (Log 2) vs untreated (CPS1 [2]): 3.79 Log 2; number of urea cycle genes whose expression was significantly up-regulated (urea cycle genes): four; Up-regulated Genes (urea cycle genes): CPS1, ASS1, ARG1, SLC25A15; Fold change (Log 2) vs untreated, ASS1 expression (ASS1): 0.6 Log 2 |
| S=C(NCc1ccc2c(c1)OCO2)N1CCN(c2ncnc3c2oc2ccccc23)CC1 [Amuvatinib] |  |  |  |  | Relative ARGI level vs Untreated (±Standard Deviation) (ARG1; 10 μM): 1.71 ± 0.19; Fold change (Log 2) vs untreated, ARG1 expression (ARG1): 2.5 Log 2; Relative CPS1 level vs Untreated (±Standard Deviation) (CPS1 [2]; 10 μM): 2.07 ± 0.42; number of urea cycle genes whose expression was significantly up-regulated (urea cycle genes): five; Up-regulated Genes (urea cycle genes): CPS1, ASS1, ASL, OTC, ARG1; Fold change (Log 2) vs untreated, ASS1 expression (ASS1): 0.69 Log 2 |
| CCS(=O)(=O)N1CC(CC#N)(n2cc(-c3ncnc4[nH]ccc34)cn2)C1 [Baricitinib] | 2.56 | 2.85 | 1.4 | 1.38 |  |
| CC[C@@](C)(Nc1ccnc(-c2c[nH]c3ncccc23)n1)C(=O)NCC(F)(F)F [Decernotinib] | 1.01 | 2.18 | 1.07 | 1.28 |  |
| COc1cc2ncnc(Nc3ccc(O)cc3)c2cc1OC [JANEX-1] | 0.85 | 1.1 | 0.86 | 1.01 |  |
| O=C(Nc1c[nH]nc1-c1nc2ccc(CN3CCOCC3)cc2[nH]1)NC1CC1 [AT9283] | 1.56 | 0.56 | 1.53 | 1.05 | Relative ARGI level vs Untreated (±Standard Deviation) (ARG1; 10 μM): 1.70 ± 0.16; Relative CPS1 level vs Untreated (±Standard Deviation) (CPS1 [2]; 3 μM): 2.35 ± 0.15; Relative CPS1 level vs Untreated (±Standard Deviation) (CPS1 [2]; 10 μM): 1.53 ± 0.33; Relative SLC25A15 level vs Untreated (±Standard Deviation) (SLC25A15; [6]): 1.78 ± 0.04; Relative SLC25A15 level vs Untreated (±Standard Deviation) (SLC25A15; [3]): 2.56 ± 1.37; Relative SLC25A15 level vs Untreated (±Standard Deviation) (SLC25A15; [4]): 2.94 ± 0.98; Relative NAGS level vs Untreated (±Standard Deviation) (NAGS; 0.3 μM): 1.43 ± 0.38; Relative NAGS level vs Untreated (±Standard Deviation) (NAGS; 1 μM): 1.49 ± 0.10; Relative NAGS level vs Untreated (±Standard Deviation) (NAGS; 3 μM): 1.38 ± 0.07; Relative ASS1 level vs Untreated (±Standard Deviation) (ASS1; 3 μM): 1.40 ± 0.43; Relative ASS1 level vs Untreated (±Standard Deviation) (ASS1; 10 μM): 2.48 ± 0.79 |
| Cc1cc(Nc2cc(CN3CCOCC3)c3nc(C)c(Cc4ccc(Cl)cc4F)n3n2)n[nH]1 [LYS2784544] | 1.98 | 3.67 | 1.3 | 1.6 |  |
| CCc1cc(O)c(F)cc1-c1ccc2c(-c3nc4c([nH]3)CCN(C(=O)c3cnc(N5CCCCC5)cn3)C4)n[nH]c2c1 [PF-06263276] | 1.16 | 1.46 | 1.05 | 1.03 |  |
| CCn1c(C(=O)N(C2CC2)C2CC2)cc2c3c(ncn3C)c(Nc3cc(C)n(C)n3)nc21 [BMS-911543] | 1.94 | 2.7 | 1.31 and 1.03 | 1.65 |  |
| B1 |  |  |  |  | Fold change (Log 2) vs untreated, ARG1 expression (ARG1): 1.79 Log 2; CPS1 expression, Fold change (Log 2) vs untreated (CPS1 [2]): 3.46 Log 2; Fold change (Log 2) vs untreated, SLC25A15 expression (SLC25A15; primary human hepatocytes, RNA-seq (Table 8)): 1.09 Log 2; Fold change (Log 2) vs untreated, NAGS expression (NAGS): 0.63 Log 2; number of urea cycle genes whose expression was significantly up-regulated (urea cycle genes): five; Up-regulated Genes (urea cycle genes): ASS1, CPS1, NAGS, ARG1, SLC25A15; Fold change (Log 2) vs untreated, ASS1 expression (ASS1): 1.34 Log 2 |
